Test [1] has as its system Human adipose-derived mesenchymal stem cells (hAT-MSCs). As to the kind of experiment: Inducement of differentiation of adipose-derived mesenchymal stem cells into adipocytes (Oil Red O staining). The test is classed as cell-based. The following applies: day 14. An excerpt: Human adipose-derived mesenchymal stem cells (hAT-MSCs) were purchased form Lonza, Inc. (Walkersville, Md., USA) and cultured according to the instructions of Lonza, Inc. The adipose-derived mesenchymal stem cells were induced to differentiate into adipocytes according to the instructions of Lonza, Inc. except that troglitazone (TRO) was used instead of indomethacin. Specifically, the mesenchymal stem cells were differentiated into adipocytes by adding to a culture of the mesenchymal stem cells […] insulin, 1 µM dexamethasone (DEXA), 0.5 mM isobutylmethylxanthine (IBMX) and […] TRO. To a test group, the compound of Example 1 was added to the medium at a concentration of 30 μM when inducing the differentiation into adipocytes. A positive control group was treated with 30 μM glibenclamide together with IDX. On day 14 after the adipose-derived mesenchymal stem cells began to differentiate into adipocytes, the cells were washed with 10 mL of phosphate-buffered saline (PBS) and then fixed for 10 minutes using a 10% formalin/PBS solution (0.2 mL/cm^2). The fixed cells were washed once with a 60% isopropanol solution (0.5 mL/cm^2) and lipid bodies in the adipocytes were stained for 10 minutes with Oil Red O dissolved in 60% isopropanol (0.2 mL/cm^2). Then, after staining again with hematoxylin to visualize nuclei, the cells were observed under a microscope.

Another test relates to Adiponectin. As to the kind of experiment: Measurement of expression level of adiponectin in human adipose-derived mesenchymal stem cells (ELISA). It counts as cell-based. The conditions noted are these: for effect of increasing adiponectin expression (in words): 60 μM with IDX, day 14, Table 1; for Adiponectin (pg/mL, avg ± S.D.): secreted into culture medium, day 14 of differentiation, together with IDX, sample 60 μM. How it is done:
Adiponectin is a representative protein hormone secreted in adipocytes. It is reported that the expression of adiponectin is increased with the differentiation into adipocytes. Accordingly, the amount of adiponectin secreted into a cell culture medium was measured as a marker of promotion of adipocyte differentiation. In order to measure the secreted amount of adiponectin, human adipose-derived mesenchymal stem cells purchased form Lonza, Inc. were gathered on day 14 after they began to differentiate into adipocytes and the amount of adiponectin was quantified using an adiponectin ELISA kit (R&D Systems, Cat. No. DY1065) as follows (Data were normalized to that of the control group). Specifically, after reacting with a capture antibody on a 96-well plate and washing with a washing buffer, the cells were treated with a sample at a concentration of 60 μM and incubated at room temperature for 2 hours. Subsequently, the cells were incubated with a detection antibody, HRP, a substrate solution and a stop solution for the time specified in the protocol, while washing 3 times between each step. After the final incubation, absorbance was measured at 450 nm using a spectrophotometer.

SMILES strings stand for the structures.

`O=C(/C=C/c1ccc2c(c1)OCO2)OCc1cc(=O)c(O)co1` [Example 1, (2E)-(5-hydroxy-4-oxo-4H-pyran-2-yl)methyl 3-(benzo[d][1,3]dioxo-6-yl)acrylate]: the “differentiation into adipocytes as compared to treatment with IDX only” value in test [1] (30 μM added to medium when inducing differentiation, Oil Red O staining, microscope (FIG. 1)) is recorded as “increased differentiation into adipocytes”. Further, in test [1] (30 μM, Oil Red O staining (FIG. 1)), the “number of the stained cells compared with glibenclamide as positive control” value is recorded as “slightly less”. Besides, in the test with Adiponectin, the “effect of increasing adiponectin expression (in words)” value was “increased the expression of adiponectin” and the “Adiponectin (pg/mL, avg ± S.D.)” value is 1435 ± 113 pg/mL.
Turning to `O=C(/C=C/c1ccc2c(c1)OCCO2)OCc1cc(=O)c(O)co1` [Example 2, (2E)-(5-hydroxy-4-oxo-4H-pyran-2-yl)methyl 3-(2,3-dihydroxybenzo[b][1,4]dioxo-7-yl)acrylate], in the test on Adiponectin, the “effect of increasing adiponectin expression (in words)” value is “increased the expression of adiponectin” and the “Adiponectin (pg/mL, avg ± S.D.)” value is recorded as 1300 ± 140 pg/mL.
For `COc1ccc(Cl)cc1C(=O)NCCc1ccc(S(=O)(=O)NC(=O)NC2CCCCC2)cc1` [glibenclamide, reference compound], in the test with Adiponectin, the “Adiponectin (pg/mL, avg ± S.D.)” value is on record as 1832 ± 110 pg/mL.
Consider `O=c1cc(CO)occ1O` [kojic acid, reference compound], for which, in the test on Adiponectin, the “effect of increasing adiponectin expression (in words)” value is “did not show an effect of increasing adiponectin expression” and the “Adiponectin (pg/mL, avg ± S.D.)” value was 312 ± 103 pg/mL.

The values above are taken from patent US10251862B2, “Cosmetic composition containing hydroxy pyranone derivative compound for promoting differentiation of adipocytes” (AMOREPACIFIC CORPORATION, priority 2014, dated 2019).
